Reference: patent US20230263808A1 (UNIVERSITY OF FLORIDA RESEARCH FOUNDATION, INCORPORATED, priority 2020, published 2023)
“Also recorded” adds a separate entry of the source.

How the values were obtained:
[1] = test system: LPS-induced TNFα; experiment: LPS-induced plasma TNFα levels in mice; type: in vivo, C57BL/6 male mice; conditions: mice pretreated with ligand
Source text: (§1) A) Correlation of correlation (COC) plots where each point represents the Pearson correlation coefficient, r, between a distinct gene expression or GR-peptide interaction assay with assays indicated on the x and y axes. B) The effects of all tested compounds on IL-1β-induced secretion of IL-6 (y axes) and GC-regulated phenotypes indicated on the x axes. C) The effects of all tested compounds on IL-1β-induced secretion of IL-6 (y axis) and bone mineralization (x axis). D) IL-1β-induced IL-6 production by A549 cells treated with 10 μM of the indicated compounds was compared by AlphaLISA. E-H) Myoblasts were assayed as described in FIG. 8. I) Representative myoblasts imaged during the mitochondrial potential assay. J) Plasma TNFα levels of C57BL/6 male mice treated pretreated with the indicated ligands. K) Changes in lean mass of mice in panel J were determined by whole-body NMR after an additional 18 h LPS treatment. Data shown are mean+SEM.

[2] = test system: IL-1β-induced IL-6 secretion by A549 lung cells; experiment: IL-1β-induced IL-6 secretion by A549 lung cells (AlphaLISA); type: cell-based; conditions: 10 μM
Source text: as §1
In order to understand whether effects on skeletal muscle could be dissociated from anti-inflammatory effects of the ligands, we profiled the compounds for suppression of IL1β-induced IL-6 secretion by A549 lung cells. Examining the correlations between assays can be used to identify dissociated assays that selectively correlate with a given phenotype, predicting discovery of dissociated ligands. […] We call this a correlation of correlations (COC) plot. […] These include recruitment of NCOA2 and NCOA3 peptides, coactivators that we and others have shown to be required for GC-dependent suppression of inflammation in different cell types (FIG. 11, A). However, for the mitochondrial assay and IL-6, there are dissociated assays shown by points that are far out from the regression line in the COC plot (FIG. 7, A). For example, interaction of CHD9 with GR predicted mitochondrial activity but not Glut4 translocation (FIG. 11, B), while interaction with the CENPR peptide selectively predicted effects on Glut4 translocation (FIG. 11, C). […] Assays that correlated with effects of the ligands on GR nuclear translocation were also highly correlated with Glut4 translocation and suppression of IL-6 secretion (FIG. 11, F). Therefore, the COC curves provide a way to identify common signaling mechanisms between different GR target tissues and signaling pathways.

[3] = test system: mitochondrial activity, pAKT, protein synthesis, and bone; experiment: Compound profiling platform, overall profile (FIG. 15); type: cell-based; conditions: 10 uM
Experimental: N=4-6 from two different experiments. […] D) Mitochondrial activity was measured in myoblasts using high content imaging with mitotracker dye after 24 treatment. New amino acid incorporation was measured with LICOR in cell western for puromycin (SunSet assay). […] N=3, mean+SEM. […] N=4, mean+SEM, 2-way ANOVA.
(§2) To avoid such effects on myogenesis, we switched myoblasts to differentiation media, and then on day 4, added 10 μM cytarabine, a chemotherapy agent that kills dividing cells, and then adding GCs on day 6 or 7 and completing assays in day 8 (FIG. 8).
(§3) Physiologically, the effects of GCs on protein balance and Glut4 translocation vary in vivo depending upon the stressor. For example, GCs mediate atrophy in response to fasting but not exercise. […] To assess protein degradation, we measured chymotrypsin-like proteasomal activity (FIG. 2, A). The activating phosphorylation of AKT at Thr308 (pAKT) was measured using a LI-COR In-Cell Western assay (FIG. 2, B and C). The rate-limiting step in insulin-mediated glucose uptake is the translocation of the glucose transporter, Glut4, to the surface membrane, which we also measured by In-Cell Western without permeabilizing the myotubes (FIG. 2, D). Surface Sensing of Translation (SUnSET) (Schmidt et al., Nat Methods 6, 275-277, 2009) assay was used to measure protein synthesis by In-Cell Western, following treatment of myotubes with a low dose of puromycin, which incorporates into translating proteins, but at a low enough level to provide a readout for global protein synthesis (FIG. 2, E). Lastly, we developed a high-content imaging assay in myoblasts stained with a MitoTracker dye, so that individual mitochondrial networks could be visualized with adequate resolution to quantitate area, segmentation, branching, and fluorescence intensity which is a measure of mitochondrial membrane potential (ψm).
Additional studies were performed to assess activities of the various compounds identified from the previous profiling.

[4] = Body weight change after an overnight fast; type: in vivo, C57BL/6 male mice; conditions: 10 mg/kg Dex or SR16024, 50 mg/kg SR11466, single dose
Source text: A) The effects of all tested compounds on IL-1β-induced IL-6 production (x-axes) versus GR interaction with the indicated peptides. B-C) The effects of all tested compounds on the indicated GC-regulated phenotypes (x-axes) versus GR interaction with the CHD9_1023 and CENPR_1 peptides (y-axes). D-F) COC plots. Each point represents the Pearson correlation coefficient, r, between a distinct gene expression or GR-peptide interaction assay with assays indicated on the x and y axes. G) The effects of all tested compounds on IL-1β-induced IL-6 production (y-axes) versus insulin-induced protein synthesis. […] IL-β-induced IL-6 production by A549 cells treated with the indicated compounds was compared by AlphaLISA. […] Mice in panel K were subjected to a lactate-tolerance test (LTT).
We were also interested in whether the compounds would show dissociation between Glut4 translocation in skeletal muscle and gluconeogenesis in the liver, but enhanced glucose production is typically studied after weeks or months of GC treatment. However, we reasoned that an overnight fast should enable detection of effects after a single dose. […] Thus, profiling effects of GCs in the physiological context of nutrient deprivation allowed the discovery of two new types of glucocorticoids with improved profiles in skeletal muscle.

[5] = test system: C2C12 myotubes; experiment: Insulin-induced protein synthesis (SUnSET, In-Cell Western) in C2C12 myotubes; type: cell-based, mouse; conditions: for effect on insulin-induced protein synthesis: differentiated myotubes, nutrient-deprived, insulin challenge
Experimental: A) C2C12 myotubes were assayed for chymotrypsin-like proteasomal activity. […] C) Quantitation of the ICW in panel B. D) ICW for surface expression of Glut4 on L6 myotubes. E) ICW for insulin-induced incorporation of puromycin into C2C12 myotube surface proteins. F-G) High-content imaging and analysis of C2C12 myoblasts stained with a Mitotracker dye. H) Assay reproducibility from screening 22 compounds on two separate occasions. The Pearson correlation coefficient, r, and its associated p-value is indicated.
C2C12 myocytes were used in all assays, except in the Glut4 translocation assay where L6 rat myocytes were used. ICW, In-Cell Western. Also see Methods.
as §2, §3

[6] = test system: GILZ mRNA; experiment: GILZ gene expression; type: cell-based

Structure (SMILES): C=CCOC1CC2(C)C(CCC2(O)C#CC)C2CCc3cc(C(=O)Nc4cccnc4C)ccc3C12 (centres unmarked) [SR11466]
- LPS-induced TNFα levels in the blood [1]: strongly suppressed
- inhibition of IL-1β-induced IL-6 secretion (anti-inflammatory) [2]: as efficiently as Dex; also recorded: fully inhibiting IL-6 secretion; also recorded: efficacious; also recorded: inhibited IL-6 secretion as efficiently as dexamethasone
- overall profile in compound profiling (anabolic effects, agonism) [3]: anti-inflammatory but muscle sparing; also recorded: anabolic effects
- preserving body mass after overnight fast [4]: significantly better than Dex
- effect on insulin-induced protein synthesis [5]: slightly anabolic

Structure (SMILES): CC#CC1(O)CCC2C3CCc4cc(C(=O)Nc5cnccc5C)ccc4C3C(O)CC21C (centres unmarked) [SR15421]
- inhibition of IL-1β-induced IL-6 secretion (anti-inflammatory) [2]: anti-inflammatory
- overall profile in compound profiling (anabolic effects, agonism) [3]: anabolic effects

Structure (SMILES): CC#CC1(O)CCC2C3CCc4cc(C(=O)Nc5cccnc5C)ccc4C3C(OCc3ccccc3Cl)CC21C (centres unmarked) [SR16024]
- LPS-induced TNFα levels in the blood [1]: not inhibitory
- inhibition of IL-1β-induced IL-6 secretion (anti-inflammatory) [2]: partially inhibited; also recorded: weakly anti-inflammatory
- overall profile in compound profiling (anabolic effects, agonism) [3]: more antagonistic SGRMs; also recorded: anabolic effects
- preserving body mass after overnight fast [4]: slight weight sparing effect
- anabolic effect on protein synthesis in combination with Dex ([5]; C2C12 myotubes, with Dex): right-shift in the dose curve; also recorded: Dex inhibits
- effect on insulin-induced protein synthesis [5]: doubling; also recorded: robustly stimulated protein synthesis
- GILZ gene expression [6]: not activating GILZ

Structure (SMILES): CC#CC1(O)CCC2C3CCc4cc(C(=O)Nc5cccnc5C)ccc4C3C(OCc3ccc(Cl)cc3)CC21C (centres unmarked) [SR16025]
- inhibition of IL-1β-induced IL-6 secretion (anti-inflammatory) [2]: weakly anti-inflammatory
- overall profile in compound profiling (anabolic effects, agonism) [3]: more antagonistic SGRMs; also recorded: anabolic effects
- GILZ gene expression [6]: not activating GILZ
